These results are taken from patent US20130331610A1, “Halogenated Pyrazolo[1,5-A]Pyrimidines, Processes, Uses, Compositions and Intermediates” (priority 2005, published 2013).

As usually defined, the Vd is a proportionality between amount in the body and measured concentration, not a real space. High values mean extensive tissue distribution, low ones confinement near the circulation. The clearance is a measure of how efficiently the substance is removed, as volume per time. A high value points to a high capacity for elimination. The half-life is the time needed for the level to fall by half in the phase considered. A low value points to rapid decline. Broadly, the melting point is the temperature, or range, at which the solid turns liquid.

In data set [1] the test system is motor activity of mice. Description: In vivo predictive sedation-hypnosis test in mice (inhibition of traveled distance). More on the design: species or system mouse. As to conditions: for inhibition in vivo at 0.98 µmol/kg / inhibition in vivo at 98 µmol/kg / inhibition in vivo at 3 µmol/kg: Mus musculus, read-out: % Inhib motor activity; for inhibition in vivo at 0.98 µmol/kg: 0.98 μmol/kg; for inhibition in vivo at 0.98 µmol/kg / inhibition in vivo at 98 µmol/kg / inhibition in vivo at 3 µmol/kg / inhibition percentage (motor activity): mice; for inhibition in vivo at 98 µmol/kg: 98 μmol/kg; for inhibition in vivo at 3 µmol/kg: 3 μmol/kg; for inhibition percentage (motor activity): 3 μmol/kg po. As for the experimental part: 2—In Vivo Determination of Predictive Sedative-Hypnotic Action
The in vivo effects of these compounds were assessed by a predictive sedation-hypnosis test in mice (D. J. Sanger et al., Eur. J. Pharmacol., 313, 35-42, 1996; and G. Griebel et al., Psychopharmacology, 146, 205-213, 1999).
Groups of 5-8 male CD1 mice, weighing 22-26 g at the time of testing, were used. The test compounds were administered in single equimolecular intraperitoneal doses, suspended in 0.25% agar with one drop of Tween 80 in a volume of 10 ml/kg. Two doses were tested in each route. Control animals received the vehicle alone. Using a Smart System (Panlab, S. L., Spain) the traveled distance in cm was recorded for each mouse at 5-min intervals during a period of 30 minutes after intraperitoneal (ip) dosing and 60 minutes after oral (po) dosing. The inhibition percentage of traveled distance of treated animals versus control animals (the first 5 min were discarded) was calculated.

Data set [2] concerns the target α2 subunit of GABAA receptor (Rattus norvegicus, UniProt P18508+P23576). Description: biochemical. To be noted: for inhibition at 10 µM: read-out: % Inhib 10^−5 M; for inhibition at 0.1 µM: read-out: % Inhib 10^−7 M.
Procedure: Determination of the Affinity of Test Compounds for α1- and α2-GABAA Receptor
Male Sprague-Dawley rats weighing 200-250 g at the time of experiment were used. After decapitation, the cerebellum (tissue that mostly contains α1-GABAA receptor) and spinal cord (tissue that mostly contains α2-GABAA receptor) were removed. […] Once the tissues weighed, they were suspended in 50 mM Tris.HCl (pH 7.4), 1:40 (v/v), or sucrose 0.32 M in the case of spinal cord, homogenized and then centrifuged at 20000 g for 10 min at 7° C. The resulting pellet was resuspended under the same conditions and centrifuged again. The pellet was finally resuspended on a minimum volume and kept at −80° C. overnight. On the next day, the process was repeated until the final pellet was resuspended at a ratio of 1:10 (v/v) in the case of cerebellum and at a ratio of 1:5 (v/v) in the case of spinal cord.
Affinity was determined by competitive tests using radiolabeled flumazenil as ligand. […] Simultaneously, the membranes were only incubated with the radiolabeled flumazenil (total binding, 100%) and in the presence of an elevated concentration of unradiolabeled flumazenil (non-specific binding, % estimation of radiolabeled ligand). The reactions started on adding the radiolabeled ligand followed by incubation for 60 minutes at 4° C. At the end of the incubation period, 200 μl of reaction were transferred to a multiscreen plate (Millipore) and filtered using a vacuum manifold and then washed three times with cold test buffer. The multiscreen plates were equipped with a GF/B filter that retained the membranes containing the receptors and the radiolabeled ligand which had been bound to the receptors. After washing, the plates were left till dry. Once dried, scintillation liquid was added and left under stirring overnight. The next day the plates were counted using a Perkin-Elmer Microbeta scintillation counter.
where, X: amount of bound ligand for every concentration of compound. T: total binding, maximum amount bound to the radiolabeled ligand. N: non-specific binding, amount of radiolabeled ligand bound in a non-specific way irrespective of the receptor used.
Every concentrations of each compound were tested in triplicate and their mean values were used to determine the experimental values of % specific binding versus the concentration of compound.
Data set [3] has as its target α1 subunit of GABAA receptor (Rattus norvegicus, UniProt P18508+P62813). Description: biochemical. To be noted: for inhibition at 10 µM: read-out: % Inhib 10^−5 M; for inhibition at 0.1 µM: read-out: % Inhib 10^−7 M. The source says:
% specific binding=(X−N/T−N)×100

Data set [4] is described as follows: Pharmacokinetic profile after single intravenous dose in rats. To be noted: rat; for Vd / clearance / half-life: male, Sprague-Dawley, plasma; for Vd / clearance / half-life / AUC0-t: mean. Type of data set: in vivo. As for the experimental part:
In Vivo Determination of Pharmacokinetic Profile after Single Dose
Indiplon was used as reference compound. Three male Sprague-Dawley rats, weighing 250-300 g were used for each compound. The sampling was performed by retroorbital sinus puncture at the following time points 2.5, 5, 30, 60, 120, 180, 300 and 420 min post-administration. The samples were kept in an ice-bath until plasma separation. The animals were anaesthetized by isoflurane inhaled at each extraction. Plasma was separated by centrifugation (10 min, 4° C., 4500 rpm) and stored at temperature below −70° C. until analysis.
An analytical method based on an extraction of each compound by liquid-solid extraction and subsequent determination by LC/MS or LC/MS/MS using an internal standard (IS) was used.
Calculation of pharmacokinetic parameters (AUC0-t=area under the curve from zero to last extraction time-point, Cl=clearance, t1/2=half-life and Vd=volume of distribution) according to non-compartmental analysis was performed.

Data set [5] in a line: Metabolic stability in human hepatocytes cytosolic fraction. The format is in vitro ADME. As to conditions: 5 μM, 1.0 mg/ml human cytosol, 37° C. As for the experimental part: In Vitro Determination of Metabolic Stability in Human Hepatocytes Cytosolic Fraction
Compounds were dissolved in DMSO to achieve an initial concentration of 10 mM. This stock solution was then diluted with solvent and buffer to obtain final assay concentration of 5 μM. Compounds were tested at a single concentration of 5 μM in duplicate incubating with 1.0 mg/ml of pooled human cytosol (obtained from Xenotech plc) at 37° C. Metabolism was assessed in the presence or absence of cofactors and measured as loss of parent compound by LC/MS analysis at 0, 60 and 120-minutes time points. Percent parent remaining was then calculated. A generic LC method was used: • Mobile phase: • A=0.1% Formic acid in water • B=0.1% Formic acid in acetonitrile • HPLC Column: Higgins Clipius C18 5 μm, 50×3 mm • Flow rate: 2 ml·min^−1

The test system of data set [6] is HepG2 cells. The experiment in a line: In vitro cell toxicity in HepG2 at 24 h (MTS). The format is cell-based, human. As to conditions: for cytotoxicity compared with prior art compounds: HepG2, 24 h; for cell toxicity in HepG2, percentage of control (relative cell viability): 100 μM, 24 h, MTS. Here is the method:
In Vitro Determination of Cell Toxicity in HepG2 at 24 h
HepG2 cells (human hepatocellular carcinoma) were obtained from the American Type Culture Collection (ATCC) and cultured in Eagle's Minimum Essential Medium (Eagle) with Earle's balanced salt solution adjusted to contain 1.87 mM Glutamax™ I, 0.1 mM non-essential amino acids, 1.0 mM sodium pyruvate, 100000 U/L penicillin, 10000 μg/L streptomycin 90%; fetal bovine serum, 10%. Promega CellTiter 96® Aqueous Non-Radioactive Cell Viability Assay contains the tetrazolium compound [3-(4,5-dimethylthiazol-2-yl)-5-(3-carboxymethoxyphenyl)-2-(4-sulfophenyl)-2H-tetrazolium, inner salt (MTS). The conversion of MTS into the aqueous soluble formazan product is accomplished by dehydrogenase enzymes found in metabolically active cells. The quantity of formazan product is directly proportional to the number of living cells in culture.
Compounds were dissolved in DMSO to achieve an initial concentration of 100 mM. Serial dilutions were made from this stock solution into DMSO to achieve concentrations of 10, 1, 0.1 and 0.01 mM. The stock solution and serial dilutions were then diluted 1:100 with cell culture medium to obtain […] final assay concentrations of […]. The final DMSO concentration in all wells was 1% v/v. HepG2 cells were incubated with test compounds for 24 hours. Relative cell viability was determined spectrophotometrically at 490 nm following the addition of the MTS dye and further one-hour incubation. Tamoxifen was used as the positive control.
The percent absorbance of the samples treated with the test article was compared to the untreated sample to calculate the percentage of control.

Read-outs that look alike come from different tables or passages of the source.

Sequence of α1 subunit of GABAA receptor (P62813 28-455): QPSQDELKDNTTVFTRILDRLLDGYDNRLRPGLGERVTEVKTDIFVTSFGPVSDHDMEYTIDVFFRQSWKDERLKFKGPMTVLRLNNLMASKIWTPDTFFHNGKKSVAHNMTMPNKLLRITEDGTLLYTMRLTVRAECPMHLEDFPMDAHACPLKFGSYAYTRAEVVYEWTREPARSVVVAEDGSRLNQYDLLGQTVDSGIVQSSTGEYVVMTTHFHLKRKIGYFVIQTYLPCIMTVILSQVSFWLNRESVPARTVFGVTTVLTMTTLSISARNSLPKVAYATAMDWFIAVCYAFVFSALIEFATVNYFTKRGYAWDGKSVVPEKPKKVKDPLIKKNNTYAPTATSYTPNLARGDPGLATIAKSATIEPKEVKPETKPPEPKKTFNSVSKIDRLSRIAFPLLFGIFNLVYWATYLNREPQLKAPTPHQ
Sequence of α1 subunit of GABAA receptor (P18508 39-466): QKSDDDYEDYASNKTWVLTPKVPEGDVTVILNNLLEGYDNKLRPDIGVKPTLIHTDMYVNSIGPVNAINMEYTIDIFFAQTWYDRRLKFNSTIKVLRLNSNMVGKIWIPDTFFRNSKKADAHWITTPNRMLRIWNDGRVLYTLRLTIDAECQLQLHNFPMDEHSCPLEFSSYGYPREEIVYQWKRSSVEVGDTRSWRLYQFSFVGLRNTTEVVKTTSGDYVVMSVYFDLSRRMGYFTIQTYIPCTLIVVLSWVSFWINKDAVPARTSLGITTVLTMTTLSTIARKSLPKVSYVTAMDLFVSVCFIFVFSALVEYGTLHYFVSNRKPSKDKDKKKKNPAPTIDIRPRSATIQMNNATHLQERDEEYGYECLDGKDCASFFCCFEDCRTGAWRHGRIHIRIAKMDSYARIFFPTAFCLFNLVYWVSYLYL
Sequence of α1 subunit of GABAA receptor (P63138 26-474 partner): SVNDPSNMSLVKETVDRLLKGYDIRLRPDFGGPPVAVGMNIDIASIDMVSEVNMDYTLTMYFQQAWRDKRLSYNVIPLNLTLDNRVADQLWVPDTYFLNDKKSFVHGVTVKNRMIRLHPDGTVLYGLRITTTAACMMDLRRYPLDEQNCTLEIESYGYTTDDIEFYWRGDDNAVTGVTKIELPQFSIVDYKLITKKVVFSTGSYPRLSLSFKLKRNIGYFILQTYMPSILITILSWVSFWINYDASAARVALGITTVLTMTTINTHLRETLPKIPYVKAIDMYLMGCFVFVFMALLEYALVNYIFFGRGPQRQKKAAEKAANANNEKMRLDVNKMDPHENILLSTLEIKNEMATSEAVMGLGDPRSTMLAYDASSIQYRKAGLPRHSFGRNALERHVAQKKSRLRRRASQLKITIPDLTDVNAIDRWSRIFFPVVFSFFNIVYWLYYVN
Sequence of α2 subunit of GABAA receptor (P23576 29-451): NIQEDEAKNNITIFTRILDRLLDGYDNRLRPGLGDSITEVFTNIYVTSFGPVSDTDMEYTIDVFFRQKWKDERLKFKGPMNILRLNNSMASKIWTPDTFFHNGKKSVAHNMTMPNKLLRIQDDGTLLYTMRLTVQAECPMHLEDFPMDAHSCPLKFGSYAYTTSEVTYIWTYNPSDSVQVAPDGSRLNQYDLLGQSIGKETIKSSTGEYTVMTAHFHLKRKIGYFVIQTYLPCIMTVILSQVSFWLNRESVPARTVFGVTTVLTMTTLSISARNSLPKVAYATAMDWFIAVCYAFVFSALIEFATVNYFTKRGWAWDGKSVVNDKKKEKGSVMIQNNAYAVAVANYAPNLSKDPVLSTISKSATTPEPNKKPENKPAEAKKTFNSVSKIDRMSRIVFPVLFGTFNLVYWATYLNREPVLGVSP
Sequence of α2 subunit of GABAA receptor (P18508 39-466): as the sequence (P18508 39-466) above
Sequence of α2 subunit of GABAA receptor (P63079 26-473 partner): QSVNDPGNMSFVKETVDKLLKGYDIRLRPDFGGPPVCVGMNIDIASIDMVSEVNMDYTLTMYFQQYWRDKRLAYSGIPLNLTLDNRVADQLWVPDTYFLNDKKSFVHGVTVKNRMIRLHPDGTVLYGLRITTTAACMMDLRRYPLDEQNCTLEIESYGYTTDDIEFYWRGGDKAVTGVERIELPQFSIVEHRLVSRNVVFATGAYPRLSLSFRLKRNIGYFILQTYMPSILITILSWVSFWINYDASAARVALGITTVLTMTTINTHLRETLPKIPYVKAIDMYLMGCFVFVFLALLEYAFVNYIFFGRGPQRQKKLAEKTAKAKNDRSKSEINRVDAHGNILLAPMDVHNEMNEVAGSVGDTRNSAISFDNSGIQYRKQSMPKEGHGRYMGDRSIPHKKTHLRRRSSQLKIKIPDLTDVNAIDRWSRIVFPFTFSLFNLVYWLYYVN

Turning to `CN(c1cccc(-c2ccnc3c(C(=O)c4cccs4)cnn23)c1)S(C)(=O)=O` [Example 3 WO2005014597, N-{3-[3-(thiophene-2-carbonyl)-pyrazolo[1,5-a]pyrimidin-7-yl]-phenyl}-N-methyl-methanesulfonamide, reference compound], in data set [1] (ip), the inhibition in vivo at 0.98 µmol/kg was 64.6% and the inhibition in vivo at 98 µmol/kg was 89.8%. In data set [2], the inhibition at 10 µM is 99.8% and the inhibition at 0.1 µM is 58.5%. Also, in data set [3], the inhibition at 10 µM was 100% and the inhibition at 0.1 µM stood at 90.6%.

Regarding `C#CCN(c1cccc(-c2ccnc3c(C(=O)c4cccs4)cnn23)c1)S(C)(=O)=O` [Example 16 WO2005014597, N-{3-[3-(thiophene-2-carbonyl)-pyrazolo[1,5-a]pyrimidin-7-yl]-phenyl}-N-prop-2-ynyl-methanesulfonamide, reference compound], in data set [1] (ip), the inhibition in vivo at 0.98 µmol/kg was 71.4% and the inhibition in vivo at 98 µmol/kg was 95.4%. For the same compound, in data set [1] (po), the inhibition in vivo at 3 µmol/kg was 38.8% and the inhibition in vivo at 98 µmol/kg is 84.3%. In data set [3], the inhibition at 10 µM turned out to be 100% and the inhibition at 0.1 µM amounted to 99.9%.

As to `CC(=O)N(C)c1cccc(-c2ccnc3c(C(=O)c4cccs4)cnn23)c1` [Indiplon, N-{3-[3-(thiophene-2-carbonyl)-pyrazolo[1,5-a]pyrimidin-7-yl]-phenyl}-N-methyl-acetamide, reference compound], in data set [4], the distribution volume (Vd) stood at 2.32 L/kg, the clearance was 3.45 L/h/kg, the half-life was 0.984 h and the AUC0-t is 0.7 µg·h/mL. The “inhibition percentage (motor activity)” value in data set [1] (5 minutes) is 74%. Besides, the “inhibition percentage (motor activity)” value in data set [1] (60 minutes) is 67%. For the same compound, in data set [1] (ip), the inhibition in vivo at 0.98 µmol/kg is 70.5% and the inhibition in vivo at 98 µmol/kg was 88%. Further, in data set [1] (po), the inhibition in vivo at 3 µmol/kg is 73.7% and the inhibition in vivo at 98 µmol/kg was 82.4%. In data set [5] (60 min), the Percent parent remaining is given as 100%. Further, in data set [5] (120 min), the Percent parent remaining is given as 98%.

`CC(=O)N(C)c1cc(-c2ccnc3c(C(=O)c4cccs4)cnn23)ccc1F` [Preparative example 2, N-{2-Fluoro-5-[3-(thiophene-2-carbonyl)-pyrazolo[1,5-a]pyrimidin-7-yl]-phenyl}-N-methyl-acetamide]: in data set [4], the distribution volume (Vd) was 7.24 L/kg, the clearance is 2.74 L/h/kg, the half-life was 1.73 h and the AUC0-t was determined as 1.1 µg·h/mL. In data set [4] (versus Indiplon), the “area under the curve higher than Indiplon” value was determined as 57%, the “clearance lower than Indiplon” value worked out at 20%, the “half-life higher than Indiplon” value is on record as 76% and the “volume of distribution higher than Indiplon” value was 212%. The “inhibition percentage (motor activity)” value in data set [1] (5 minutes) was 84%. Besides, in data set [1] (60 minutes), the “inhibition percentage (motor activity)” value is recorded as 84%. Also, in data set [1] (ip), the inhibition in vivo at 0.98 µmol/kg was 81.2% and the inhibition in vivo at 98 µmol/kg is 95%. In data set [1] (po), the inhibition in vivo at 3 µmol/kg was 84% and the inhibition in vivo at 98 µmol/kg was 92.3%. For the same compound, the Percent parent remaining in data set [5] (60 min) worked out at 104%. For the same compound, the Percent parent remaining in data set [5] (120 min) was 110%. Further, in data set [2], the inhibition at 10 µM is 99.3% and the inhibition at 0.1 µM was 67.3%. Further, in data set [3], the inhibition at 10 µM turned out to be 100% and the inhibition at 0.1 µM is 95.3%. The “cytotoxicity compared with prior art compounds” value in data set [6] is listed as “less cytotoxicity than prior art compounds”.

With `CC(=O)N(C)c1cc(-c2ccnc3c(C(=O)c4cccs4)cnn23)ccc1Cl` [Preparative example 4, N-{2-Chloro-5-[3-(thiophene-2-carbonyl)-pyrazolo[1,5-a]pyrimidin-7-yl]-phenyl}-N-methyl-acetamide], the inhibition in vivo at 98 µmol/kg in data set [1] (ip) is 90.3%; in data set [1] (po) it was 88.7%. The Percent parent remaining in data set [5] (60 min) was found to be 105%; in data set [5] (120 min) it was 103%. Besides, the results for the inhibition at 10 µM in data set [2] and in data set [3] were 95.7% and 99.8%, respectively. Further, the inhibition at 0.1 µM in data set [2] was determined as 8.4%; in data set [3] it was 60%. In addition, the “cell toxicity in HepG2, percentage of control (relative cell viability)” value in data set [6] amounted to 92.86%. Besides, in data set [6], the “cytotoxicity compared with prior art compounds” value was “less cytotoxicity than prior art compounds”.

As to `CN(c1cc(-c2ccnc3c(C(=O)c4cccs4)cnn23)ccc1F)S(C)(=O)=O` [Preparative example 6, N-{2-Fluoro-5-[3-(thiophene-2-carbonyl)-pyrazolo[1,5-a]pyrimidin-7-yl]-phenyl}-N-methyl-methanesulfonamide], in data set [1] (ip), the inhibition in vivo at 0.98 µmol/kg was 69.4% and the inhibition in vivo at 98 µmol/kg is 91.5%. In data set [1] (po), the inhibition in vivo at 3 µmol/kg was 46.2% and the inhibition in vivo at 98 µmol/kg was 82%. Besides, the Percent parent remaining in data set [5] (60 min) amounted to 103%. The Percent parent remaining in data set [5] (120 min) is 106%. For the same compound, in data set [2], the inhibition at 10 µM amounted to 97.9% and the inhibition at 0.1 µM turned out to be 55.9%. Besides, in data set [3], the inhibition at 10 µM was determined as 99.7% and the inhibition at 0.1 µM came to 88.8%. Besides, in data set [6], the “cell toxicity in HepG2, percentage of control (relative cell viability)” value came to 84.31% and the “cytotoxicity compared with prior art compounds” value is reported as “less cytotoxicity than prior art compounds”.

Take `C#CCN(c1cc(-c2ccnc3c(C(=O)c4cccs4)cnn23)ccc1F)S(C)(=O)=O` [Preparative example 10, N-{2-Fluoro-5-[3-(thiophene-2-carbonyl)-pyrazolo[1,5-a]pyrimidin-7-yl]-phenyl}-N-prop-2-ynyl-methanesulfonamide]: the melting point lay in the range of 149 to 153 °C. In data set [1] (ip), the inhibition in vivo at 0.98 µmol/kg was 91.9% and the inhibition in vivo at 98 µmol/kg is 91.6%. In data set [1] (po), the inhibition in vivo at 3 µmol/kg was 47.9% and the inhibition in vivo at 98 µmol/kg was 90.2%. For the same compound, in data set [1] (versus Example 16 of WO2005014597, low dose, independently of the administration route), the “increase in sedative-hypnotic activity” value is recorded as “higher than 20%”. In addition, in data set [2], the inhibition at 10 µM was 100% and the inhibition at 0.1 µM turned out to be 97.5%. Further, in data set [3], the inhibition at 10 µM amounted to 100% and the inhibition at 0.1 µM was found to be 99.7%.

For `CCN(C(C)=O)c1cccc(-c2ccnc3c(C#N)cnn23)c1` [Zaleplon, reference compound], in data set [1] (ip), the inhibition in vivo at 0.98 µmol/kg was 32.7% and the inhibition in vivo at 98 µmol/kg was 85%. In addition, in data set [1] (po), the inhibition in vivo at 3 µmol/kg is 25.4% and the inhibition in vivo at 98 µmol/kg is 64.1%.
